Earlier results as cited in patent publication US20110071172A1, “SUBSTITUTED QUINAZOLINES AS BLOOD PLATELET LOWERING AGENTS” (Shire LLC, priority 2008, published 2011).

What was measured:
[1] = system: human megakaryocytopoiesis
[2] = biological target: human phosphodiesterase 111 (PDE III); conditions: for IC50: read-out: IC50, PDE III inhibition
[3] = system: erythroid or myelomonocytic differentiation; conditions: stimulated by erythropoietin or granulocyte-macrophage colony-stimulating factor

Row | IC50 ([1]; estimated, in vitro, dose-dependent, read-out: IC50, inhibition of TPO-induced megakaryocytopoiesis) [nM] | first pass effect (in vivo) [%] | potency as PDE III inhibitor relative to anagrelide ([2]; ratio versus anagrelide) | half-life (typical) [h] | exposure in vivo relative to parent drug (typical exposures versus anagrelide) | SMILES | IC50 [2] [nM] | effect on erythroid or myelomonocytic differentiation [3] | potency in inhibition of megakaryocytopoiesis relative to parent drug ([1]; versus anagrelide)
1 | ~26 | > 50 | – | – | – | O=C1CN2Cc3c(ccc(Cl)c3Cl)N=C2N1 [Anagrelide, 6,7-dichloro-1,5-dihydroimidazo[2,1-b]-quinazolin-2(3H)-one] | ~29 | does not affect | –
2 | – | – | – | – | – | Cc1[nH]c(=O)c(C#N)cc1-c1ccncc1 [milrinone] | 170 to 350 | – | –
3 | – | – | over 40 fold | 2.5 | 2-3 fold | O=C1NC2=Nc3ccc(Cl)c(Cl)c3CN2C1O (stereo not drawn) [3-hydroxyanagrelide] | – | – | no more potent than the parent drug
